Reference: patent US20260356887A1, “NOVEL MYD88 INHIBITOR FOR TREATMENT OF AUTOIMMUNE DISEASES AND USES THEREOF” (S&K THERAPEUTICS, priority 2023, published 2026)
Structures can show the parent of a compound that is named as a salt. Blank lines part the entries; values can stand above or below the compound they belong to. No end group written: not given here.

Legend:
[1] = system: C57BL/6 mice with MOG35-55-induced EAE; assay: MOG35-55-induced experimental autoimmune encephalomyelitis (EAE) model; assay type: in vivo, mouse
Description: Eight-week-old female C57BL/6 (B6) mice (Orient Bio, Korea) were maintained in a specific pathogen-free environment on a standard laboratory ad libitum diet. All experiments were approved by the Animal Care and Use Committee [NDIC Approval Nos. 12022111 (EAE) and I2022053-3 (psoriasis), Hwaseong, Korea] and were performed in accordance with relevant guidelines and regulations.
EAE was induced in mice using the Hooke Kit (MOG35-55/complete Freund's adjuvant (CFA) Emulsion PTX (Hooke Laboratories, LLC, Lawrence, MA, USA)) according to the manufacturer's protocol. Mice were immunized subcutaneously with myelin oligodendrocyte glycoprotein emulsified in complete Freund's adjuvant. […]
Mice were weighed and examined daily, and EAE symptoms were assessed using the following standard scoring system: 0-6: 0, no symptoms; 1, limp tail; 2, limp tail and hind limb paralysis; 3, paralysis of one or more hind limbs; 4, complete hind limb and hindquarter paralysis; 5, hindquarter paralysis with forelimb paralysis; and 6, death. […]
To investigate the therapeutic potential of MyDIP2-4 on EAE progression, mice were immunized with MOG35-55 peptide in CFA and pertussis toxin was administered once on day 0 and again 24 hours later. […] Mouse body weight and EAE clinical scores were recorded three times a week: days 0, 2, 5, 7, 9, 12, 14, 16, 19, and 21.

[2] = system: C57BL/6 mice with IMQ-induced psoriasis; assay: Imiquimod-induced psoriasis model; assay type: in vivo, mouse; conditions: MyDIP2-4 5 and 20 mg/kg i.p., dexamethasone 10 mg/kg oral
Description: Six-week-old female C57BL/6 mice (Orient Bio, Seongnam, Korea) were housed under specific pathogen-free conditions on a standard laboratory ad libitum diet. Animal experiments related to psoriasis were approved by the Animal Care and Use Committee [NDIC Approval Nos. 12022111 (EAE) and I2022053-3 (psoriasis), Hwaseong, Korea] and were performed in accordance with relevant guidelines and regulations.
Disease was induced by topical application of Aldara cream (Donga ST; Seoul, Korea) containing 5% imiquimod onto the back of six-week-old female C57BL/6 mice for 5 consecutive days. MyDIP2-4 was administered intraperitoneally at doses of 5 and 20 mg/kg. As a positive control group, dexamethasone (Sigma-Aldrich; cat. No. D1756) was administered orally at a dose of 10 mg/kg. Five days later, mice were sacrificed under respiratory anesthesia, and skin lesions were collected for histological examination.
An objective scoring system to quantify the severity of back skin inflammation was established based on the PASI scoring system, a widely used clinical tool to assess psoriasis severity. On a scale from 0 to 4, factors such as erythema, scaling, wrinkles, and thickness were individually assessed as follows: 0, none; 1, weak; 2, moderate; 3, significant; and 4, very evident. Under the careful supervision of experienced investigators, erythema, scaling, and thickness were graded. The cumulative score (erythema+scaling+thickness score, scale 0-12) indicates the severity of psoriasis symptoms.
Skin tissue was removed, the upper layer was fixed in neutral formalin, and H&E staining and IHC were performed. Epidermal thickness of skin tissue was measured using H&E staining. IL-17, KI-67, and IL-23 levels were measured using IHC with the aid of antibodies against IL-17A (Thermo Fisher Scientific; cat. No. PA5-79470), KI-67 (Cell Signaling; cat. No. 12202), and IL-23 (Novus Biologicals; cat. No. NBP1-76697).
To establish an IMQ-induced psoriasis model, Aldara cream containing 5% imiquimod was topically applied onto the back of six-week-old female C57BL/6 mice for 5 consecutive days. […]

[3] = system: RAW 264.7 cells; assay: Macrophage viability (MTT assay) in RAW 264.7 cells; assay type: cell-based; conditions: mouse macrophages; 50 μM; 24 hours
Description: THP-1 and RAW 264.7 cells (ATCC, Manassas, VA, USA) were cultured at 37 °C and 5% CO2 in RPMI (Roswell Park Memorial Institute) medium and Dulbecco's modified Eagle medium supplemented with fetal bovine serum (FBS, 10%), 4 mM L-glutamine, 1 mM sodium pyruvate, penicillin (100 units/ml), and streptomycin (0.1 mg/ml). THP-1 cells, which are monocytes, were differentiated into macrophages by treatment with 80 nM phorbol 12-myristate 13-acetate (PMA, Sigma-Aldrich) for 24 hours. The cells were cultured at 37 °C and 5% CO2 in a humidified incubator (Thermo Fisher Scientific, Inc.), and the medium was replaced every 18 hours.
To evaluate the cytotoxic effect of the peptide on mouse and human macrophages, RAW 264.7 cells and THP-1-derived macrophages were seeded at respective densities of 5×10^4/well and 2×10^5/well in 96-well plates (BD Biosciences, San Jose, CA, USA) followed by culture overnight at 37 °C in a humidified incubator. After treating the cells with the peptide at the corresponding concentration for 24 hours, viability was measured using 3-(4,5-dimethylthiazol-2-yl)-2,5-diphenyltetrazolium bromide (MTT) assay (Sigma-Aldrich). […] Relative cell viability was calculated by measuring absorbance at 570 nm, and the untreated control group was designated as having a relative viability of 100%. […]

[4] = target: human MyD88 protein (Homo sapiens, UniProt Q99836); assay: Surface plasmon resonance (SPR) analysis of MyDIP2-4 and MyD88; assay type: binding; conditions: MyD88 immobilized on NTA chip, MyDIP2-4 0.8 to 12.8 μM in PBS
Sequence of human MyD88 protein (Q99836 whole entry): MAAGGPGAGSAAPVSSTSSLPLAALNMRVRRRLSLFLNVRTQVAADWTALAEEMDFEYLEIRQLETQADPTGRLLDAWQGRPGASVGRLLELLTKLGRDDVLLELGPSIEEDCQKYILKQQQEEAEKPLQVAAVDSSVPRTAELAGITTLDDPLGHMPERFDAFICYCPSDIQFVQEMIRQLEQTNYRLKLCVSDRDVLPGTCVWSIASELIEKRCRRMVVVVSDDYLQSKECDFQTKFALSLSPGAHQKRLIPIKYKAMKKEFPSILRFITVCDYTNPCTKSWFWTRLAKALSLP
Description: The biophysical interactions between MyDIP2-4 and MyD88 were evaluated using SPR analysis in an iMSPR-mini system (icluebio, Seongnam, Korea). MyD88 protein was immobilized on the surface of a nitrilotriacetic acid (NTA) sensor chip at a concentration of 50 μg/ml. MyDIP2-4 was injected into the MyD88-binding chip at various concentrations ranging from 0.8 to 12.8 μM (dissolved in PBS) at a flow rate of 50 μl/min. PBS was used as a running buffer and injected into the empty channel as a reference. Experiments were performed twice using freshly prepared reagents, and data were analyzed using TraceDrawer software (Ridgeview Instruments; Uppsala, Sweden).
SPR technology was used to evaluate the biophysical interaction between the MyDIP2-4 peptide and the MyD88 protein. SPR analysis involves immobilizing the MyD88 protein on the surface of a sensor chip and then flowing the MyDIP2-4 peptide at various concentrations.

Compound: COC(=O)/C=C/C(=O)OC [DMF, dimethyl fumarate]
EAE clinical score compared to MyDIP2-4 ([1]; day 21, DMF 100 mg/kg vs MyDIP2-4 40 mg/kg): reduced clinical scores

Compound: C[C@@H]1C[C@H]2[C@@H]3CCC4=CC(=O)C=C[C@]4(C)[C@@]3(F)[C@@H](O)C[C@]2(C)[C@@]1(O)C(=O)CO [dexamethasone]
epidermal thickness ([2]; H&E): significantly reduced
IL-17 expression in skin tissue ([2]; IHC): did not inhibit
KI-67 in skin tissue (KI-67-positive cells) ([2]; IHC): significant decrease

kon ([4]; read-out: rate constant for association (Ka)): 3.7 M⁻¹ s⁻¹
koff ([4]; read-out: rate constant for dissociation (Kd)): 1.37e-07 s⁻¹
Compound: RQIKIWFQNRRMKWKKWLWFILFKKLSLP [MyDIP2-4]
body weight compared to DMF-treated mice (EAE) ([1]; MyDIP2-4 40 mg/kg i.p. once daily, DMF 100 mg/kg): no difference in body weight
cytotoxicity (MTT) [3]: not cytotoxic
